Measurements from PubChem BioAssay AID1918954 (Molecular Pharmacology Branch, DTP, NCI, 2023).
pIC50: −log10 of the molar value. “And” between values parts separate entries of the source, which are not always exact repeats. Equal values may be shown once.

System: MDA-MB-468 complex spheroids with HUVEC/MSC, viability
Test: Anticancer human tumor MDA-MB-468 cell line growth inhibition;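 further: spheroids exposed to agents for seven days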;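 on viability, T/C: 100% = DMSO vehicle control viability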
Conditions: for viability, T/C: stronger effect = lower value
Procedure, shortened: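 Multicellular complex spheroids of tumor cells with human endothelial cells (HUVEC) and mesenchymal stem cells; the LSD1 inhibitor iadademstat was combined with standard-of-care or investigational agents. Top concentration at or near clinical Cmax, half-log dilutions; final DMSO ≤0.25%.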

[1] = curve of first compound, second compound 0.1 µM
[2] = curve of first compound, second compound 0.316 µM
[3] = curve of first compound, second compound 1 µM
[4] = curve of first compound, second compound 3.16 µM
[5] = curve of first compound, second compound 10 µM
[6] = second compound 0.1 µM, first compound 0.0316 µM
[7] = second compound 0.1 µM, first compound 0.1 µM
[8] = second compound 0.1 µM, first compound 0.316 µM
[9] = second compound 0.1 µM, first compound 1 µM
[10] = second compound 0.316 µM, first compound 0.0316 µM
[11] = second compound 0.316 µM, first compound 0.1 µM
[12] = second compound 0.316 µM, first compound 0.316 µM
[13] = second compound 0.316 µM, first compound 1 µM
[14] = second compound 1 µM, first compound 0.0316 µM
[15] = second compound 1 µM, first compound 0.1 µM
[16] = second compound 1 µM, first compound 0.316 µM
[17] = second compound 1 µM, first compound 1 µM
[18] = second compound 3.16 µM, first compound 0.0316 µM
[19] = second compound 3.16 µM, first compound 0.1 µM
[20] = second compound 3.16 µM, first compound 0.316 µM
[21] = second compound 3.16 µM, first compound 1 µM
[22] = second compound 10 µM, first compound 0.0316 µM
[23] = second compound 10 µM, first compound 0.1 µM
[24] = second compound 10 µM, first compound 0.316 µM
[25] = second compound 10 µM, first compound 1 µM
[26] = second compound 0.1 µM, first compound 0.00316 µM
[27] = second compound 0.1 µM, first compound 0.01 µM
[28] = second compound 0.316 µM, first compound 0.00316 µM
[29] = second compound 0.316 µM, first compound 0.01 µM
[30] = second compound 1 µM, first compound 0.00316 µM
[31] = second compound 1 µM, first compound 0.01 µM
[32] = second compound 3.16 µM, first compound 0.00316 µM
[33] = second compound 3.16 µM, first compound 0.01 µM
[34] = second compound 10 µM, first compound 0.00316 µM
[35] = second compound 10 µM, first compound 0.01 µM

Structure (SMILES)	pIC50 [1]	pIC50 [2]	pIC50 [3]	pIC50 [4]	pIC50 [5]	viability, T/C [6] [%]	viability, T/C [7] [%]	viability, T/C [8] [%]	viability, T/C [9] [%]	viability, T/C [10] [%]	viability, T/C [11] [%]	viability, T/C [12] [%]	viability, T/C [13] [%]	viability, T/C [14] [%]	viability, T/C [15] [%]	viability, T/C [16] [%]	viability, T/C [17] [%]	viability, T/C [18] [%]	viability, T/C [19] [%]	viability, T/C [20] [%]	other results
CC1COCCN1c1cc(C2(S(C)(=N)=O)CC2)nc(-c2ccnc3[nH]ccc23)n1 (stereo not drawn) + NC1CCC(NC2CC2c2ccccc2)CC1	6.48	6.35	6.49	6.40	6.66	103	73.1	49.5	34.9	76.9	72.2	55.8	35.1	74.1	71	45.4	34.4	75.5	74.6	48.9	viability, T/C (second compound 0.1 µM, first compound 3.16 µM): 21.3%; viability, T/C (second compound 0.1 µM, first compound 10 µM): 10.2%; viability, T/C (second compound 0.316 µM, first compound 3.16 µM): 21.2%; viability, T/C (second compound 0.316 µM, first compound 10 µM): 10.6%; viability, T/C (second compound 1 µM, first compound 3.16 µM): 25.8%; viability, T/C (second compound 1 µM, first compound 10 µM): 11.3%; viability, T/C [21]: 36.7%; viability, T/C (second compound 3.16 µM, first compound 3.16 µM): 21.2%; viability, T/C (second compound 3.16 µM, first compound 10 µM): 12.4%; viability, T/C [22]: 63.9%; viability, T/C [23]: 54.7%; viability, T/C [24]: 48.2%; viability, T/C [25]: 35.2%; viability, T/C (second compound 10 µM, first compound 3.16 µM): 21.1%; viability, T/C (second compound 10 µM, first compound 10 µM): 8.95%
CC1COCCN1c1cc(-c2ccnn2C)c2ccnc(-c3ccn[nH]3)c2n1 (stereo not drawn) + NC1CCC(NC2CC2c2ccccc2)CC1	7.82	7.79	7.80	7.91	8.34	42.3	22.9	15.6	11.2	38.2	23	16.5	13.8	37.3	23.2	16.4	9.5	38.9	27.6	18.4	viability, T/C [26]: 81.7%; viability, T/C [27]: 54.2%; viability, T/C [28]: 68.7%; viability, T/C [29]: 58.5%; viability, T/C [30]: 72.8%; viability, T/C [31]: 59%; viability, T/C [32]: 60.4%; viability, T/C [33]: 52.7%; viability, T/C [21]: 14.9%; viability, T/C [34]: 52.9%; viability, T/C [35]: 44%; viability, T/C [22]: 30.1%; viability, T/C [23]: 19%; viability, T/C [24]: 17.4%; viability, T/C [25]: 13.4%
CC(C)CC(NC(=O)C(Cc1ccccc1)NC(=O)c1cnccn1)B(O)O (stereo not drawn)																					viability, T/C (compound 0.00316 µM): 0.95% and 0.15%; viability, T/C (compound 0.01 µM): 1.2% and 0.15%; viability, T/C (compound 0.0316 µM): 1.22% and 0.17%; viability, T/C (compound 0.1 µM): 1.51% and 0.22%; pIC50 (curve of compound): 9.16 and > 9.50
O=C(C=Cn1cnc(-c2cc(C(F)(F)F)cc(C(F)(F)F)c2)n1)NNc1cnccn1 + NC1CC1c1ccc(-c2cccc(O)c2)cc1	> 8.50	> 8.50	> 8.50	> 8.50	> 8.50	20.7	3.44	1.7	0.86	19.6	3.54	1.34	0.96	18.1	3.32	1.45	0.94	19.7	3.27	1.83	viability, T/C [26]: 38.1%; viability, T/C [27]: 30.3%; viability, T/C [28]: 36.9%; viability, T/C [29]: 31%; viability, T/C [30]: 38.5%; viability, T/C [31]: 28.9%; viability, T/C [32]: 33.8%; viability, T/C [33]: 34.2%; viability, T/C [21]: 1.13%; viability, T/C [34]: 31%; viability, T/C [35]: 28.9%; viability, T/C [22]: 18.3%; viability, T/C [23]: 4.7%; viability, T/C [24]: 2.04%; viability, T/C [25]: 1.62%
NC1CC1c1ccc(-c2cccc(O)c2)cc1 (stereo not drawn)																					pIC50 (compound alone, run of 02/01/2022): < 5.00
COc1cc(C2c3cc4c(cc3C(OC3OC5COC(C)OC5C(O)C3O)C3COC(=O)C23)OCO4)cc(OC)c1O (stereo not drawn)																					viability, T/C (compound 0.00949 µM): 79% and 92.3%; viability, T/C (compound 0.03 µM): 76.9% and 70.8%; viability, T/C (compound 0.0949 µM): 48.1% and 27.1%; viability, T/C (compound 0.3 µM): 15.1% and 15%; viability, T/C (compound 0.949 µM): 14.4% and 10%; viability, T/C (compound 3 µM): 10.4% and 4.22%; pIC50 (curve of compound): 7.06 and 7.28
